Experimental data from patent US8178575B2, “Derivatives of azabicyclo octane, the method of making them and the uses thereof as inhibitors of dipeptidyl peptidase IV” (Shanghai Hengrui Pharmaceutical Co., Ltd., priority 2007, dated 2012).
Counter-ions that a name gives are not always drawn.

What was measured:
normal ICR mice = test: Oral glucose tolerance test in normal ICR mice; format: in vivo; settings: male ICR mice, 30 minutes after 2.5 g/kg glucose
Description: Normal male ICR mice were randomly grouped according to weights, 6 mice in each group. The groups included a blank control group as well as different doses of the treatment groups as follows:
Animals in each group had been fasted for 6 hours, and then pretreated with compounds or double distilled water by gavage respectively in single administration. 30 minutes later, animals were administered 2.5 g/kg glucose by gavage. Before administration and after administration of glucose at 30, 60 and 120 minuets, blood was taken to determine serum glucose levels.
Serum glucose is determined by glucose kit. 250 μl working enzyme solution was taken, and then 5 μl serum was added to the solution. A blank tube (5 μl double distilled water was added) and a standard tube (5 μl glucose standard solution was added) were established simultaneously, shaking respectively, and in 37° C. water bath for 20 minutes. The blank tube was tuned with, and then calorimetric assay was determined at OD505 nm. Serum glucose concentration (BG, mmol/l)=ODsample tube/ODstandard tube×5.55 Data Processing and Statistical Analysis: • 1. Mean±SD and Student-t test were used in data statistical analysis. • 2. The percentage of blood glucose decline in 30 minutes after sugar administration as well as the area under the curve (AUC) was calculated.

FAP = target: T1, FAP (Homo sapiens, UniProt Q12884); test: Selective activity determination of DPPIV inhibitors, fluorescence substrate; format: biochemical
T1 sequence (Q12884 1-760): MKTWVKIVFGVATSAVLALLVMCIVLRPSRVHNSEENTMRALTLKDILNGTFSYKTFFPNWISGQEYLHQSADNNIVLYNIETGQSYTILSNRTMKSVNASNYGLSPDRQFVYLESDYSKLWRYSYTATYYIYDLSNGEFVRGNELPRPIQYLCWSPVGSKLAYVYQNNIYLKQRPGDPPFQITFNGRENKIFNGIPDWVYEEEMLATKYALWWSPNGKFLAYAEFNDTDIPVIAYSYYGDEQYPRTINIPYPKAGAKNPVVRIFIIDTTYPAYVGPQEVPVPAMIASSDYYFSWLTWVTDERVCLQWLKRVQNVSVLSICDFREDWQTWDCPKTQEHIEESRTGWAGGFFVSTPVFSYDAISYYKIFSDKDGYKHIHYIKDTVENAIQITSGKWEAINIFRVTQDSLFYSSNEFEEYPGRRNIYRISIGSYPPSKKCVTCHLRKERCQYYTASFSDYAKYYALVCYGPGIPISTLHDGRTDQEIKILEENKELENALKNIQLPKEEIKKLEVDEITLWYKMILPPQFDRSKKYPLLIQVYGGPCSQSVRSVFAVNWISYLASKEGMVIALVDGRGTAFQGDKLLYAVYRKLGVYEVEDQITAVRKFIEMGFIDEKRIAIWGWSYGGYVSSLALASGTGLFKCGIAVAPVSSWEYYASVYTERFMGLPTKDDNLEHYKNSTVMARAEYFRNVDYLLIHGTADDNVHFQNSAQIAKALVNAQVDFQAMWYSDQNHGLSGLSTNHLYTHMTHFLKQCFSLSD
Source text: (§1) It can cut off the first two amino acids in many of the N-peptide to change or lose its biological activity. Gene knockout animal and human experiments indicate that reducing DPPIV activity effectively and specifically in vivo can improve blood insulin content and lower blood sugar levels, so as to improve the symptoms of diabetes effectively.
(§2) By using the insect expression system, the recombinant proteins of DPPIV, DPP8, DPP9 and QPP had been obtained. The activities of the […] enzymes were detected by fluorescence Substrate. The inhibitory effects of compounds were evaluated by the effects of different compounds on inhibiting enzyme activities. Positive reference compound was LAF237.

DPPIV = target: T2, DPPIV (Homo sapiens, UniProt P27487); test: Selective activity determination of DPPIV inhibitors, recombinant enzyme, fluorescence substrate; format: biochemical
T2 construct: made in house; host or cells: insect expression system
T2 sequence (P27487 whole entry): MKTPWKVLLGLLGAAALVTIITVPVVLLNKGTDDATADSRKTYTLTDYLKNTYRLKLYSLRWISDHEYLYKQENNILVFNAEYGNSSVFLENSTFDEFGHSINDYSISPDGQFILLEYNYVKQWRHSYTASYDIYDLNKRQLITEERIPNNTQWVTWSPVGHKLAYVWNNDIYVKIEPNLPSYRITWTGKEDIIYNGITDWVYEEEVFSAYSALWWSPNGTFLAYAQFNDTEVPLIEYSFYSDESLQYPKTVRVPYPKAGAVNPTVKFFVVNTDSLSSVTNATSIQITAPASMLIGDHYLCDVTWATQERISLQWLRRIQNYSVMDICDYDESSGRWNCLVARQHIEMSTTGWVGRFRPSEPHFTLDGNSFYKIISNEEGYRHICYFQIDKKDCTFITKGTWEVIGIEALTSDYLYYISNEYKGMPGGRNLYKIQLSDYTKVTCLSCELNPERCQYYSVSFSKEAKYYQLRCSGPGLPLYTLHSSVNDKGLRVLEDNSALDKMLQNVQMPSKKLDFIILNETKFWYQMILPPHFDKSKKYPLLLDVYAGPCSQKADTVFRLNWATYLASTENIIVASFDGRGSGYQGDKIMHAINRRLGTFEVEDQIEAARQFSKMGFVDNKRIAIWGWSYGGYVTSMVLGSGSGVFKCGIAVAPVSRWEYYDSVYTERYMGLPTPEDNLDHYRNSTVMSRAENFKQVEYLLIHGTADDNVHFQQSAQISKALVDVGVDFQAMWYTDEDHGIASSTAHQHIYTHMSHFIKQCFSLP
Source text: as §1, §2

QPP = target: T3, QPP (Homo sapiens, UniProt Q9UHL4); test: as above; format: biochemical; settings: recombinant protein from insect expression system
T3 construct: made in house; host or cells: insect expression system
Source text: as §1, §2

[1] = test system: type II diabetes KKAy mice; test: Oral glucose tolerance test in type II diabetes KKAy mice; format: in vivo
Description: Normal KKAy mice had been fasted for 6 hours, and then were randomly grouped according to weights and fasting blood glucose, 5 mice in each group. The groups included a blank control group as well as different doses of the treatment groups as follows:
30 minutes later, animals were administered 2.5 g/kg (female KKAy mice) or 1.5 g/kg (male KKAy mice) glucose by gavage. After administration of glucose at 30, 60 and 120 minuets, serum glucose levels were determined by Glucometer.
• 3. Mean±SD and Student-t test or Anova were used in data statistical analysis. • 4.

[2] = Test 1, high dose (10 mg/kg by gavage)
[3] = Test 1, low dose (1 mg/kg by gavage)
[4] = Test 1, middle dose (3 mg/kg by gavage)
[5] = Test 2, high dose (10 mg/kg by gavage)
[6] = Test 2, low dose (1 mg/kg by gavage)
[7] = Test 2, middle dose (3 mg/kg by gavage)
[8] = female KKAy mice, 10 mg/kg by gavage, 30 minutes after 2.5 g/kg glucose
[9] = male KKAy mice, 10 mg/kg by gavage, 30 minutes after 1.5 g/kg glucose
[10] = male KKAy mice, 30 mg/kg by gavage, 30 minutes after 1.5 g/kg glucose

Row | Structure (SMILES) | percentage of blood glucose decreased vs control group (normal ICR mice; [2]) | percentage of blood glucose decreased vs control group (normal ICR mice; [3]) | percentage of blood glucose decreased vs control group (normal ICR mice; [4]) | percentage of blood glucose decreased vs control group (normal ICR mice; [5]) | percentage of blood glucose decreased vs control group (normal ICR mice; [6]) | percentage of blood glucose decreased vs control group (normal ICR mice; [7]) | IC50 (FAP) | IC50 (DPPIV) | IC50 (QPP) | percentage of blood glucose decreased vs control group [1, 8] | percentage of blood glucose decreased vs control group [1, 9] | percentage of blood glucose decreased vs control group [1, 10] | percentage of blood glucose decreased vs control group ([1]; female KKAy mice, 3 mg/kg by gavage, 30 minutes after 2.5 g/kg glucose)
1 | COC(=O)N1C[C@H]2C[C@@H](NCC(=O)N3CCC[C@H]3C#N)C[C@H]2C1 (relative stereo) [Example 2, cis-5-[2-(2-Cyano-pyrrolidin-1-yl)-2-oxo-ethylamino]-hexahydro-cyclopenta[c]pyrrole-2-carboxylic acid methyl ester hydrochloride] | 26.93% | 25.54% | 25.92% | 27.75% | 24.51% | 26.96% | 476 ± 112 nM | 98 ± 36.4 nM | > 56000 nM | 21.55% | 13.79% | 12.23% | 
2 | CN(C)C(=O)N1C[C@H]2C[C@@H](NCC(=O)N3CCC[C@H]3C#N)C[C@H]2C1 (relative stereo) [Example 1, cis-5-[2-(2-Cyano-pyrrolidin-1-yl)-2-oxo-ethylamino]-hexahydro-cyclopenta[c]pyrrole-2-carboxylic acid dimethylamide hydrochloride] | 31.85% | 19.16% | 22.85% | 32.05% | 26.10% | 30.24% |  |  |  | 24.68% | 16.22% | 17.15% | 40.63%
